Patent US10221197B2, “Phosphatidylinositol 3-kinase inhibitors” (Gilead Sciences, Inc., priority 2014, dated 2019)
Where two headings read alike, the source gives them in different places.

Experiments:
Format in all cases: biochemical
PI3Kβ = PI3Kβ (Homo sapiens (Human), UniProt P42338); assay: TR-FRET enzymatic assay of PI3K isoforms (PI3Kβ); conditions: TR-FRET, 2×Km ATP, 2 μM PIP2, incubated for 30 minutes at 25° C.; read-out: β IC50
Experimental: (§1) The compounds of formula (I) were characterized for their enzymatic activity against the PI3K isoforms. Certain compounds of the present application, including certain compounds of formula (II) and (III) were also characterized for their enzymatic activity against PI3K isoforms. The activities were measured using a time-resolved fluorescence resonance energy transfer (TR-FRET) assay.

PI3Kδ = PI3Kδ (Homo sapiens (Human), UniProt O00329); assay: TR-FRET enzymatic assay of PI3K isoforms (PI3Kδ); conditions: 2×Km ATP, 2 μM PIP2, incubated for 30 minutes at 25° C., read-out: δ IC50
Experimental: as §1

PI3Kγ = PI3Kγ (Homo sapiens (Human), UniProt P48736); assay: TR-FRET enzymatic assay of PI3K isoforms (PI3Kγ); conditions: read-out: γ IC50
Experimental: as §1

[1] = TR-FRET, 2×Km ATP, 2 μM PIP2, PI3Kγ at 2 nM, incubated for 30 minutes at 25° C.

PI3Kγ, sequence (P48736 whole entry, canonical isoform): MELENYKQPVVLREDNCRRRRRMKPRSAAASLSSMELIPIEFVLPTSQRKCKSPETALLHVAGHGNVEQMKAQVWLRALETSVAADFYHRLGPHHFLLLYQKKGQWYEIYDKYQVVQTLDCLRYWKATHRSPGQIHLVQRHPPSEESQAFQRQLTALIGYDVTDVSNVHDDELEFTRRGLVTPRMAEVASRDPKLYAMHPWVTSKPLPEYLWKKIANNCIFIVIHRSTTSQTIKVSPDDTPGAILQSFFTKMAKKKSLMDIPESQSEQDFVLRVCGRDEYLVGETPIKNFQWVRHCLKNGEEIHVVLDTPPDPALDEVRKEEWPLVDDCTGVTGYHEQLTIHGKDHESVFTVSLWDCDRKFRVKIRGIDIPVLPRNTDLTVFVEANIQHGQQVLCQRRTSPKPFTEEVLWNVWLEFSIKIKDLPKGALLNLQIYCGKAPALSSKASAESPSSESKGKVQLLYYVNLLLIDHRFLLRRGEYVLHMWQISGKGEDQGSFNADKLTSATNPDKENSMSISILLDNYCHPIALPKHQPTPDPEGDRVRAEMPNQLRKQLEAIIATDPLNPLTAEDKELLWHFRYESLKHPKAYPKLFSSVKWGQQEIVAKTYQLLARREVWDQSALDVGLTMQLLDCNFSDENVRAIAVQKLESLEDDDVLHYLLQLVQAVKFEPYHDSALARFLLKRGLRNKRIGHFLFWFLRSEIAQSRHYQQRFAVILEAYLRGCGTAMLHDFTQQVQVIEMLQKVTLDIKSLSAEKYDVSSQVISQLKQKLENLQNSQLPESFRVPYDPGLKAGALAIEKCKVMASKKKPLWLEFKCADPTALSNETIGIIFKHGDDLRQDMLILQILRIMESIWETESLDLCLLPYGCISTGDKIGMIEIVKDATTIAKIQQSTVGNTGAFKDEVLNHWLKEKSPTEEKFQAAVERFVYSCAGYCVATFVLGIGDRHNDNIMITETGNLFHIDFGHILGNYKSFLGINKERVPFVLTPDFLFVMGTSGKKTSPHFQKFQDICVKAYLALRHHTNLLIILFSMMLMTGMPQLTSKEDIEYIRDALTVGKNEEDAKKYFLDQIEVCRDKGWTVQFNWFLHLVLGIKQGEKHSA
PI3Kγ, sequence (Q8WYR1 whole entry partner, canonical isoform): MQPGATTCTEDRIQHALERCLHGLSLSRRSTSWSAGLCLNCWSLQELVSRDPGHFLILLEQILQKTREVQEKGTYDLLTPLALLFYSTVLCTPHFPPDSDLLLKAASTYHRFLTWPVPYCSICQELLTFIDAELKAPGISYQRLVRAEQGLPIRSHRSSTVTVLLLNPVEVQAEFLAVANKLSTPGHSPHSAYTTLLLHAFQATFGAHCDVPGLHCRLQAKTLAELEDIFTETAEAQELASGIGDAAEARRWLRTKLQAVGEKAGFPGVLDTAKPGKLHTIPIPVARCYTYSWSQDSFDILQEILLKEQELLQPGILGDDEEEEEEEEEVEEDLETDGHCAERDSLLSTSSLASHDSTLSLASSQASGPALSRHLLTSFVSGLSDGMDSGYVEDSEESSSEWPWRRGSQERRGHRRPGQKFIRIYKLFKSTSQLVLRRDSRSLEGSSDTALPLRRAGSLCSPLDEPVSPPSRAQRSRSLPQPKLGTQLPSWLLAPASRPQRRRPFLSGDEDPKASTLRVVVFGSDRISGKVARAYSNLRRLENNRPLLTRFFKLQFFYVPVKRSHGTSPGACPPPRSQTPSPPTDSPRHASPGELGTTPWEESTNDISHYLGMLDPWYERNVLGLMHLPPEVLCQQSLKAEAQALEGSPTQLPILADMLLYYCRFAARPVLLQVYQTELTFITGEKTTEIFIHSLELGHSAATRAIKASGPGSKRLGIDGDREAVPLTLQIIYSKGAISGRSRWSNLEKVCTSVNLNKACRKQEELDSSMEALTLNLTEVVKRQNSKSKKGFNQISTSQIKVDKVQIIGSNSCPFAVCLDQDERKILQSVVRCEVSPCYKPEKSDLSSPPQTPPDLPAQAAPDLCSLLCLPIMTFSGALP
PI3Kδ, sequence (O00329 whole entry, canonical isoform): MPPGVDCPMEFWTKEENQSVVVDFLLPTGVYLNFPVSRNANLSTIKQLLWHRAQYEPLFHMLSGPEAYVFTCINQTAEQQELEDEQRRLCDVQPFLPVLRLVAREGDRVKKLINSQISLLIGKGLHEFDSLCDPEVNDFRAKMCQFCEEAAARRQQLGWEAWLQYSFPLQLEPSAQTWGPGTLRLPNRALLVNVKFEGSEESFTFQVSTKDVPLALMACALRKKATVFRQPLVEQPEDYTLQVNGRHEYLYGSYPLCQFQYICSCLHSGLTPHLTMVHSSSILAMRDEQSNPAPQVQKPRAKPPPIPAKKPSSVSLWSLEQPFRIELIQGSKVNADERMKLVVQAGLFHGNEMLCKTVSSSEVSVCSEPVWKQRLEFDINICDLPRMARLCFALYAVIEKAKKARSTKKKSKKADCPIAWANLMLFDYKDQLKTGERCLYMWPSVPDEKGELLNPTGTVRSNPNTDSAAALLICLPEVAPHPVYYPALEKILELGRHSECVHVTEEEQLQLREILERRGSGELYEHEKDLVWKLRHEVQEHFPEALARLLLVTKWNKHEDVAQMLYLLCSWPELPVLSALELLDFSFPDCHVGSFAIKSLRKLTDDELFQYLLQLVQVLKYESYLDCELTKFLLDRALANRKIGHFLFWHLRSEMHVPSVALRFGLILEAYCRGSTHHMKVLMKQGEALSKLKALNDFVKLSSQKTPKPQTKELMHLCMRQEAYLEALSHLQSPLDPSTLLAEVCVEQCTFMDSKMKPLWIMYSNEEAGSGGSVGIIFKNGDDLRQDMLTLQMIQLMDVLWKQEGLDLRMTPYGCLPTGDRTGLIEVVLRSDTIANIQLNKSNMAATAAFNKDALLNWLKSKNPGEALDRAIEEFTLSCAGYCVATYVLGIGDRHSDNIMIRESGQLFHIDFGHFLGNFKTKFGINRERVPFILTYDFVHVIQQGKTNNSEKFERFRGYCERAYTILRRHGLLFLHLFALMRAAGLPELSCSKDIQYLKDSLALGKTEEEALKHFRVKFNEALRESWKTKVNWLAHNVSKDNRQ
PI3Kδ, sequence (P27986 whole entry partner, canonical isoform): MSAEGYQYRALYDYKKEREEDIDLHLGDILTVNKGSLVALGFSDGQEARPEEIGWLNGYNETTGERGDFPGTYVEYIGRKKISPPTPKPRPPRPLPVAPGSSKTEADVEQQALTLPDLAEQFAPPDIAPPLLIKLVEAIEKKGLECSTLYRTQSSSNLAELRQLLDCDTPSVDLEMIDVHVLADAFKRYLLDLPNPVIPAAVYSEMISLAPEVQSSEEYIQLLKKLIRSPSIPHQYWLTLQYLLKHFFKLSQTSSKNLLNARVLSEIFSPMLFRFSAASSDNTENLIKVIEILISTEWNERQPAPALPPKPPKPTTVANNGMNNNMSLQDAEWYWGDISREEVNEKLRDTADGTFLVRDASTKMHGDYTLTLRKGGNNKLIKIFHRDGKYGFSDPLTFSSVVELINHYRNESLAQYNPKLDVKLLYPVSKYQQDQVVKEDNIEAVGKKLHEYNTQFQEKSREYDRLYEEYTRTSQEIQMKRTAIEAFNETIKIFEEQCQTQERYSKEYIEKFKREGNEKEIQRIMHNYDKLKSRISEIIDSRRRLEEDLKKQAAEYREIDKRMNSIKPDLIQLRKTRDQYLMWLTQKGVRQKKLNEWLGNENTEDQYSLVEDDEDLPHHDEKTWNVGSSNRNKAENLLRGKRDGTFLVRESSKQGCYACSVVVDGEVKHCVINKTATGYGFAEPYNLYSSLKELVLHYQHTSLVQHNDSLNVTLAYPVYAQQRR
PI3Kβ, sequence (P42338 whole entry, canonical isoform): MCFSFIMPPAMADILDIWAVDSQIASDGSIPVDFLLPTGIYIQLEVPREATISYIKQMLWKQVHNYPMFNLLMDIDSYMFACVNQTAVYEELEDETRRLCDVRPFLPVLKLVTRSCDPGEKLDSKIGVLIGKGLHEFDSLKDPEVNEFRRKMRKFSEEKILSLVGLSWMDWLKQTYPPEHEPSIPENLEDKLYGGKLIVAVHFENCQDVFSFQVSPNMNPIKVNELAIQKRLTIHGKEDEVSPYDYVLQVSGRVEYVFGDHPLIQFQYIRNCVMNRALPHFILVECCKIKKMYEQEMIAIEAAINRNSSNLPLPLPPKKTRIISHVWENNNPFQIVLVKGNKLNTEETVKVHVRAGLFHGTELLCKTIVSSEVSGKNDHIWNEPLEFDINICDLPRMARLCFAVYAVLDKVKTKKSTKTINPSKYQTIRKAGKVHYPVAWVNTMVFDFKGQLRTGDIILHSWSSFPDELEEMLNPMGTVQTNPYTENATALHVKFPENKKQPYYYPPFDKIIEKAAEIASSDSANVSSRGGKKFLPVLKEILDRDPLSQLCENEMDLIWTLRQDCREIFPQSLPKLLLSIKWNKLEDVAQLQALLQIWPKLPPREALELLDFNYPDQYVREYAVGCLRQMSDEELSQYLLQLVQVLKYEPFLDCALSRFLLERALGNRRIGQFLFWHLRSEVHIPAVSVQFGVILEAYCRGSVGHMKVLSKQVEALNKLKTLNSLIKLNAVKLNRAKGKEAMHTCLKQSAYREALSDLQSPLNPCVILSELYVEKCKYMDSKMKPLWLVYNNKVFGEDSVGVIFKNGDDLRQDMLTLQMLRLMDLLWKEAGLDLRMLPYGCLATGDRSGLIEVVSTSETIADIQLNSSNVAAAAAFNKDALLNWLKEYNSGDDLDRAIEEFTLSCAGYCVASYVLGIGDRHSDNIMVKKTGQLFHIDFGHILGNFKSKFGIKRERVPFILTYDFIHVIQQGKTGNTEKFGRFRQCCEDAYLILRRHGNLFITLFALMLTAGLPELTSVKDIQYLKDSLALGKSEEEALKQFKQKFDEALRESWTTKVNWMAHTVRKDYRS
PI3Kβ, sequence (P27986 whole entry partner, canonical isoform): as the sequence (P27986 whole entry partner, canonical isoform) above

IC50 (PI3Kβ) [nM] | IC50 (PI3Kδ) [nM] | IC50 (PI3Kγ; [1]) [µM] | IC50 (PI3Kγ) [µM] | Compound
21 | 10 | 8.7 |  | CCNC(=O)Nc1cccc(-n2c([C@H](COCc3ccccc3)Nc3ncnc(N)c3C#N)nc3cccc(Cl)c3c2=O)c1 [Compound 132, (R)-1-(3-(2-(1-((6-amino-5-cyanopyrimidin-4-yl)amino)-2-(benzyloxy)ethyl)-5-chloro-4-oxoquinazolin-3(4H)-yl)phenyl)-3-ethylurea]
5 | 10 | 6 |  | COCCCNC(=O)Nc1cccc(-n2c([C@H](C)Nc3ncnc(N)c3C#N)nc3cccc(Cl)c3c2=O)c1 [Compound 134, (S)-1-(3-(2-(1-((6-amino-5-cyanopyrimidin-4-yl)amino)ethyl)-5-chloro-4-oxoquinazolin-3(4H)-yl)phenyl)-3-(3-methoxypropyl)urea]
16 | 35 | 3.5 |  | COCCCNC(=O)Nc1cccc(-n2c([C@H](C)Nc3ncnc4[nH]cnc34)nc3cccc(Cl)c3c2=O)c1 [Compound 135, (S)-1-(3-(2-(1-((9H-purin-6-yl)amino)ethyl)-5-chloro-4-oxoquinazolin-3(4H)-yl)phenyl)-3-(3-methoxypropyl)urea]
1800 | 610 | > 10 |  | CCNC(=O)Nc1cccc(-n2c([C@H](C)Nc3ncnc(N)c3C(=O)O)nc3cccc(Cl)c3c2=O)c1 [Compound 136, (S)-4-amino-6-((1-(5-chloro-3-(3-(3-ethylureido)phenyl)-4-oxo-3,4-dihydroquinazolin-2-yl)ethyl)amino)pyrimidine-5-carboxylic acid]
33 | 12 | 7.6 |  | C[C@H](Nc1ncnc(N)c1C#N)c1nc2cccc(Cl)c2c(=O)n1-c1cccc(NC(=O)NCCC(=O)O)c1 [Compound 137, (S)-3-(3-(3-(2-(1-((6-amino-5-cyanopyrimidin-4-yl)amino)ethyl)-5-chloro-4-oxoquinazolin-3(4H)-yl)phenyl)ureido)propanoic acid]
4 | 7 | 5.2 |  | C[C@H](Nc1ncnc(N)c1C#N)c1nc2cccc(Cl)c2c(=O)n1-c1cccc(NC(=O)NC(C)(C)CO)c1 [Compound 138, (S)-1-(3-(2-(1-((6-amino-5-cyanopyrimidin-4-yl)amino)ethyl)-5-chloro-4-oxoquinazolin-3(4H)-yl)phenyl)-3-(1-hydroxy-2-methylpropan-2-yl)urea]
30 | 13 | 8.1 |  | C[C@H](Nc1ncnc(N)c1C#N)c1nc2cccc(Cl)c2c(=O)n1-c1cccc(NC(=O)NC(C)(C)C(=O)O)c1 [Compound 139, (S)-2-(3-(3-(2-(1-((6-amino-5-cyanopyrimidin-4-yl)amino)ethyl)-5-chloro-4-oxoquinazolin-3(4H)-yl)phenyl)ureido)-2-methylpropanoic acid]
6 | 5 | 5.1 |  | C[C@H](Nc1ncnc(N)c1C#N)c1nc2cccc(Cl)c2c(=O)n1-c1cccc(NC(=O)NC(C)(C)CCO)c1 [Compound 140, (S)-1-(3-(2-(1-((6-amino-5-cyanopyrimidin-4-yl)amino)ethyl)-5-chloro-4-oxoquinazolin-3(4H)-yl)phenyl)-3-(4-hydroxy-2-methylbutan-2-yl)urea]
6 | 6 | 1.6 |  | C[C@H](Nc1ncnc(N)c1C#N)c1nc2cccc(Cl)c2c(=O)n1-c1cccc(NC(=O)NCC(C)(C)CO)c1 [Compound 141, (S)-1-(3-(2-(1-((6-amino-5-cyanopyrimidin-4-yl)amino)ethyl)-5-chloro-4-oxoquinazolin-3(4H)-yl)phenyl)-3-(3-hydroxy-2,2-dimethylpropyl)urea]
12 | 6 | 7.1 |  | C[C@H](Nc1ncnc(N)c1C#N)c1nc2cccc(Cl)c2c(=O)n1-c1cccc(NC(=O)NCCC(C)(C)O)c1 [Compound 142, (S)-1-(3-(2-(1-((6-amino-5-cyanopyrimidin-4-yl)amino)ethyl)-5-chloro-4-oxoquinazolin-3(4H)-yl)phenyl)-3-(3-hydroxy-3-methylbutyl)urea]

Second part, the compound before the results:

Compound | IC50 (PI3Kβ) [nM] | IC50 (PI3Kδ) [nM] | IC50 (PI3Kγ; [1]) [µM] | IC50 (PI3Kγ) [µM]
C[C@H](Nc1ncnc(N)c1C#N)c1nc2cccc(Cl)c2c(=O)n1-c1cccc(NC(=O)NC2CCC2)c1 [Compound 123, (S)-1-(3-(2-(1-((6-amino-5-cyanopyrimidin-4-yl)amino)ethyl)-5-chloro-4-oxoquinazolin-3(4H)-yl)phenyl)-3-cyclobutylurea] | 7 | 3 | 2.2 | 
C[C@H](Nc1ncnc(N)c1C#N)c1nc2cccc(Cl)c2c(=O)n1-c1cccc(NC(=O)NC(C)(C)C)c1 [Compound 124, (S)-1-(3-(2-(1-((6-amino-5-cyanopyrimidin-4-yl)amino)ethyl)-5-chloro-4-oxoquinazolin-3(4H)-yl)phenyl)-3-(tert-butyl)urea] | 14 | 9 | 3.3 | 
C[C@H](Nc1ncnc(N)c1C#N)c1nc2cccc(Cl)c2c(=O)n1-c1cccc(NC(=O)NC2CC2)c1 [Compound 125, (S)-1-(3-(2-(1-((6-amino-5-cyanopyrimidin-4-yl)amino)ethyl)-5-chloro-4-oxoquinazolin-3(4H)-yl)phenyl)-3-cyclopropylurea] | 7 | 7 | 3.4 | 
CCCNC(=O)Nc1cccc(-n2c([C@H](C)Nc3ncnc(N)c3C#N)nc3cccc(Cl)c3c2=O)c1 [Compound 126, (S)-1-(3-(2-(1-((6-amino-5-cyanopyrimidin-4-yl)amino)ethyl)-5-chloro-4-oxoquinazolin-3(4H)-yl)phenyl)-3-propylurea] | 8 | 4 | 2.9 | 
C[C@H](Nc1ncnc(N)c1C#N)c1nc2cccc(Cl)c2c(=O)n1-c1cccc(NC(=O)NCCF)c1 [Compound 127, (S)-1-(3-(2-(1-((6-amino-5-cyanopyrimidin-4-yl)amino)ethyl)-5-chloro-4-oxoquinazolin-3(4H)-yl)phenyl)-3-(2-fluoroethyl)urea] | 8 | 5 | 5.8 | 
C[C@H](Nc1ncnc(N)c1C#N)c1nc2cccc(Cl)c2c(=O)n1-c1cccc(NC(=O)NCCCO)c1 [Compound 128, (S)-1-(3-(2-(1-((6-amino-5-cyanopyrimidin-4-yl)amino)ethyl)-5-chloro-4-oxoquinazolin-3(4H)-yl)phenyl)-3-(3-hydroxypropyl)urea] | 9 | 4 | 5.6 | 
CC(O)CNC(=O)Nc1cccc(-n2c([C@H](C)Nc3ncnc(N)c3C#N)nc3cccc(Cl)c3c2=O)c1 (stereo partly drawn) [Compound 129, 1-(3-(2-((S)-1-((6-amino-5-cyanopyrimidin-4-yl)amino)ethyl)-5-chloro-4-oxoquinazolin-3(4H)-yl)phenyl)-3-(2-hydroxypropyl)urea] | 9 | 4 | 5.6 | 
O=C(NCCCO)Nc1cccc(-n2c([C@H](COCc3ccccc3)Nc3ncnc4[nH]cnc34)nc3cccc(Cl)c3c2=O)c1 [Compound 131, (R)-1-(3-(2-(1-((9H-purin-6-yl)amino)-2-(benzyloxy)ethyl)-5-chloro-4-oxoquinazolin-3(4H)-yl)phenyl)-3-(3-hydroxypropyl)urea] | 43 | 41 |  | > 10
